{"source": "patent US20040002052A1", "about": "“Systems and methods for rapid evaluation and design of molecules for predicted biological activity” (priority 2001, published 2004)", "key": {"[1]": {"test_system": "estrogenic activity", "assay": "uterotrophic assays (estrogenic bioactivity)", "type": "in vivo", "details": "compared with estradiol"}, "[2]": {"test_system": "estrogenic activity", "details": "Medicinal Chemistry Research 10:440-455, 2001; cited from earlier work"}}, "note": "“Also recorded” adds a separate entry of the source.", "data": [{"smiles": "CO[C@H]1C[C@]2(C)[C@@H](O)CC[C@H]2[C@H]2[C@H]1c1ccc(O)cc1C[C@H]2C", "note": "[PDC-7, 11β-Methoxy-7α-Methylestradiol]", "values": [{"measurement": "biological potency in uterotrophic assays / estrogenic activity", "setting": "[1]", "value": "improved biological potency over estradiol; also recorded: potent estrogenic activity"}, {"measurement": "estrogenic bioactivity compared with estradiol", "setting": "[2]", "value": "greater estrogenic bioactivity than estradiol"}]}]}
